Data taken from patent US20050049224A1, “Antimicrobial mixtures comprising iodopropynyl compounds and dimethyldithiocarbamate derivatives” (priority 2003, published 2005).

Assays:
[1] = tested on: Aspergillus niger (ATCC 6275); assay: Minimum Inhibitory Concentration (MIC) by spiral gradient endpoint plating, with Kull synergistic index; assay type: cell-based
Procedure: Spores were removed from the Aspergillus niger slant by adding a small amount of phosphate buffer pH 7.0 (Thomas Scientific phosphate buffer & magnesium chloride, Lot # 023-0703) and scraping with a sterile nichrome wire loop. This process was repeated twice. Loosened spores were removed from the slant by aseptically pouring them into a sterile bottle containing 30 ml. of phosphate buffer and a volume of roughly 40 ml. of 6-mm, borosilicate glass beads. The bead bottle was shaken to disperse the spores and additional buffer was added to a final volume of 50 ml. Spore density was adjusted in distilled water blanks to that of a 0.5. McFarland nephelometer standard.
With the aid of the SGE Software the proper aqueous dilutions of each biocide or test blend were prepared and adjusted to a final volume of 10 ml. Then, 250 micro-liters of each biocide mixture was processed by the spiral plater.
The Autoplate 4000 mechanically applied mixtures of test fungicides to 150 MM malt agar plates using an exponential application gradient. Gradients of applied fungicides were allowed to completely diffuse into the surface of the agar (1 to 4 hours at room temperature 23° C.) before inoculating the plates with fungi. […]
Following incubation, visible growth of the test organism was observed on a portion of the radial streak and ended where the concentration of biocide was high enough to prevent growth. This growth endpoint was used by the SGE software to compute the exact MIC expressed as parts per million (PPM) of active fungicide. […]
Elisman, H. D. Sylwestrowicz and P. K. Mayer, in Applied Microbiology, 9:538 (1961) where: • Qa=the quantity of A used in a binary mixture that gives the desired effect. • QA=the quantity of A which when used alone gives the desired effect. • Qb=the quantity of B used in a binary mixture that gives the desired effect. • QB=the quantity of B which when used alone gives the desired effect.
The synergistic index (SI) for each mixture was determined by the equation SI=Qa/QA+Qb/QB.

[2] = tested on: Aspergillus niger; assay: Fungal growth on acrylic/vinyl acrylic white house paint film on filter paper; assay type: cell-based; conditions: 0.06% actives in paint, four weeks 28° C., scale 1 (no growth touching square) to 15 (totally covered), average of at least 3 runs
Procedure: In this example an acrylic, vinyl acrylic white house paint was used as the test medium.
Test formulations of the actives were prepared for each of the biocide blends to be tested (see tables 2b and 2c) by weighing the appropriate amounts of actives and adding them to the test paint so that in each test formulation the weight of the actives was 20% of the sample and 80% of the sample was paint. Each mixture was then stirred to achieve a homogeneous mixture. These test formulations were then incorporated into the test paint at the rate of 0.3% w/w, i.e. the final level of actives in the paint was 0.06%.
The test paints were then applied to a filter paper using a standard 3-mil drawdown bar to insure uniformity of the film. Samples were then dried at room temperature, and placed on agar contained in a Petri dish. The filter papers were then inoculated with a test inoculum of Aspergillus niger. Inoculated filter papers containing the test paints were placed in a constant temperature (28° C.) fungal incubator for four weeks. At the end of the incubation, fungal growth on each test paint was measured and recorded.
Each test blend was run at least 3 times and each result represents the average of the runs.

[3] = tested on: Streptoverticillium reticulans ATCC 25607 (pink stain organism); assay: ASTM E 1428-91 pink stain test of flexible PVC film; conditions: Table 3d, IPBC/Thiram in PVC film, 1000 ppm total; two weeks 28° C.; 0 no stain, 1 trace <10%, 2 slight 10-30%, 3 moderate 30-50%, 4 heavy >50% coverage; average of triplicate
Procedure: In this example a PVC formulation for flexible vinyl film was used as the test medium.
Five blends were prepared by adding the appropriate amount of the biocide to separate vinyl film form formulations prepared according to Table 3a.
Difco malt agar was prepared using manufacturers directions. Sterilized agar (30 ML) was poured into sterile plastic 100 mm Petri dishes to provide a solidified agar layer sufficient to nourish the test organism for the duration of the test.
Following inoculation of the agar, a sterile forceps was used to place the test specimen, previously sterilized by a brief dip in boiling water, on the agar. Each test blend was run in triplicate and the result represents the average of the three. The specimen was gently pressed on the surface of the agar to insure good contact. The Petri dishes were covered and incubated for two weeks in a 28° C. incubator.
Following incubation, samples were lifted from the surface of the agar and both sides were examined against a white background for presence of pink staining.
Degree of staining reported was determined by the area of the sample stained rather than by intensity of the color. […]

Row | SMILES | QA (quantity of A which when used alone gives the desired effect) ([1]; MIC of IPBC alone (Table 1a)) | QA (quantity of A which when used alone gives the desired effect) ([1]; MIC of IPBC alone (Table 1b)) | Fungal Growth ([2]; Table 2b, IPBC/Ziram) | Fungal Growth ([2]; Table 2c, IPBC/Thiram) | Pink Stain Rating [3] | QB (quantity of B which when used alone gives the desired effect) ([1]; MIC of Thiram alone (Table 1b))
1 | CCCCNC(=O)OCC#CI [IPBC, 3-iodo-2-propynyl butyl carbamate] | 1.08 ppm | 1.08 ppm | 7.8 fungus units | 2.8 fungus units | – | –
2 | CN(C)C(=S)SSC(=S)N(C)C [Thiram, bis(dimethylthiocarbamoyl) disulfide] | – | – | – | 13.8 fungus units | 2.0 | 26.73 ppm
